For the first test, the system named is Pharbitis purpurea. The experiment in a line: Post-emergence herbicidal action, PHBPU. To be noted: Dosage 80 g/ha. Format: in vivo. Put shortly:
(§1)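 Greenhouse weeds grown in sandy loam were sprayed at the one-leaf stage, 2–3 weeks after sowing, with WP or EC formulations at 600–800 l/ha water plus 0.2% wetting agent. Damage scored visually about 3 weeks later, in percent against untreated controls (100% = plants dead).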
As for `CCn1nnnc1NC(=O)c1ccc(C(F)F)c(C[S+](C)[O-])c1SC` (stereo not drawn) [Example 2-171], the “herbicidal action PHBPU” value was 100.

On to `CCCn1nnnc1NC(=O)c1ccc(C(F)(F)F)c(CSCC(F)(F)F)c1Cl` [Example 3-311], for which the “herbicidal action PHBPU” value is 100.

`CCn1nnnc1NC(=O)c1ccc(Cl)c(CSC)c1Cl` [Example 2-559]: the “herbicidal action PHBPU” value stood at 100.

As for `CCCn1nnnc1NC(=O)c1ccc(C(F)F)c(CS(C)(=O)=O)c1SC` [Example 3-172], the “herbicidal action PHBPU” value worked out at 100.

On to `CCS(=O)(=O)Cc1c(C(F)(F)F)ccc(C(=O)Nc2nnnn2C)c1C` [Example 1-88], for which the “herbicidal action PHBPU” value came out at 90.

With `CCn1nnnc1NC(=O)c1ccc(C(F)(F)F)c(C[S+](C)[O-])c1SC` (stereo not drawn) [Example 2-162], the “herbicidal action PHBPU” value was 90.

On to `Cn1nnnc1NC(=O)c1ccc(C(F)(F)F)c(CS(C)(=O)=O)c1C(F)(F)C(F)(F)F` [Example 1-552], for which the “herbicidal action PHBPU” value is on record as 100.

As to `CCCn1nnnc1NC(=O)c1ccc(S(C)(=O)=O)c(CS(C)(=O)=O)c1C` [Example 3-39], the “herbicidal action PHBPU” value came to 90.

Turning to `CCCn1nnnc1NC(=O)c1ccc(C(F)(F)F)c(CSC)c1SC` [Example 3-161], the “herbicidal action PHBPU” value was 90.

For `Cn1nnnc1NC(=O)c1ccc(C(F)(F)F)c(CS(=O)(=O)CC2CC2)c1Cl` [Example 1-316], the “herbicidal action PHBPU” value is 90.

For `CCn1nnnc1NC(=O)c1ccc(C(F)F)c(CS(=O)(=O)CC)c1Cl` [Example 2-325], the “herbicidal action PHBPU” value is 90.

The next test deals with Amaranthus retroflexus. The experiment in a line: Post-emergence herbicidal action, AMARE. To be noted: Dosage 80 g/ha. More on the design: key: % herbicidal action vs untreated; 100 = plants died, 0 = like control. Format: in vivo. In outline:
as §1
Regarding `CCn1nnnc1NC(=O)c1ccc(C(F)F)c(C[S+](C)[O-])c1SC` (stereo not drawn) [Example 2-171], the “herbicidal action AMARE” value came to 100.

With `CCCn1nnnc1NC(=O)c1ccc(C(F)(F)F)c(CSCC(F)(F)F)c1Cl` [Example 3-311], the “herbicidal action AMARE” value came to 100.

As for `CCn1nnnc1NC(=O)c1ccc(Cl)c(CSC)c1Cl` [Example 2-559], the “herbicidal action AMARE” value turned out to be 100.

Take `CCCn1nnnc1NC(=O)c1ccc(C(F)F)c(CS(C)(=O)=O)c1SC` [Example 3-172]: the “herbicidal action AMARE” value is 100.

With `CCS(=O)(=O)Cc1c(C(F)(F)F)ccc(C(=O)Nc2nnnn2C)c1C` [Example 1-88], the “herbicidal action AMARE” value is recorded as 90.

`CCn1nnnc1NC(=O)c1ccc(C(F)(F)F)c(C[S+](C)[O-])c1SC` (stereo not drawn) [Example 2-162]: the “herbicidal action AMARE” value is 90.

For `Cn1nnnc1NC(=O)c1ccc(C(F)(F)F)c(CS(C)(=O)=O)c1C(F)(F)C(F)(F)F` [Example 1-552], the “herbicidal action AMARE” value came out at 90.

In the case of `CCCn1nnnc1NC(=O)c1ccc(S(C)(=O)=O)c(CS(C)(=O)=O)c1C` [Example 3-39], the “herbicidal action AMARE” value is on record as 100.

On to `CCCn1nnnc1NC(=O)c1ccc(C(F)(F)F)c(CSC)c1SC` [Example 3-161], for which the “herbicidal action AMARE” value came out at 100.

Take `Cn1nnnc1NC(=O)c1ccc(C(F)(F)F)c(CS(=O)(=O)CC2CC2)c1Cl` [Example 1-316]: the “herbicidal action AMARE” value was found to be 100.

In the case of `CCn1nnnc1NC(=O)c1ccc(C(F)F)c(CS(=O)(=O)CC)c1Cl` [Example 2-325], the “herbicidal action AMARE” value was 90.

The next test relates to Viola tricolor. The test is described as follows: Post-emergence herbicidal action, VIOTR. Format: in vivo. On the set-up: key: % herbicidal action vs untreated; 100 = plants died, 0 = like control. The following applies: Dosage 80 g/ha. Put shortly:
as §1
Take `CCn1nnnc1NC(=O)c1ccc(C(F)F)c(C[S+](C)[O-])c1SC` (stereo not drawn) [Example 2-171]: the “herbicidal action VIOTR” value is listed as 100.

Consider `CCCn1nnnc1NC(=O)c1ccc(C(F)(F)F)c(CSCC(F)(F)F)c1Cl` [Example 3-311], for which the “herbicidal action VIOTR” value turned out to be 90.

For the molecule `CCn1nnnc1NC(=O)c1ccc(Cl)c(CSC)c1Cl` [Example 2-559], the “herbicidal action VIOTR” value was found to be 100.

For the molecule `CCCn1nnnc1NC(=O)c1ccc(C(F)F)c(CS(C)(=O)=O)c1SC` [Example 3-172], the “herbicidal action VIOTR” value was found to be 90.

Turning to `CCS(=O)(=O)Cc1c(C(F)(F)F)ccc(C(=O)Nc2nnnn2C)c1C` [Example 1-88], the “herbicidal action VIOTR” value is reported as 100.

For `CCn1nnnc1NC(=O)c1ccc(C(F)(F)F)c(C[S+](C)[O-])c1SC` (stereo not drawn) [Example 2-162], the “herbicidal action VIOTR” value turned out to be 100.

In the case of `Cn1nnnc1NC(=O)c1ccc(C(F)(F)F)c(CS(C)(=O)=O)c1C(F)(F)C(F)(F)F` [Example 1-552], the “herbicidal action VIOTR” value was 90.

Regarding `CCCn1nnnc1NC(=O)c1ccc(S(C)(=O)=O)c(CS(C)(=O)=O)c1C` [Example 3-39], the “herbicidal action VIOTR” value stood at 100.

`CCCn1nnnc1NC(=O)c1ccc(C(F)(F)F)c(CSC)c1SC` [Example 3-161]: the “herbicidal action VIOTR” value is given as 100.

`Cn1nnnc1NC(=O)c1ccc(C(F)(F)F)c(CS(=O)(=O)CC2CC2)c1Cl` [Example 1-316]: the “herbicidal action VIOTR” value is recorded as 100.

As to `CCn1nnnc1NC(=O)c1ccc(C(F)F)c(CS(=O)(=O)CC)c1Cl` [Example 2-325], the “herbicidal action VIOTR” value worked out at 100.

In a further test the test system is Viola tricolor. The test is described as follows: Pre-emergence herbicidal action, VIOTR. Format: in vivo. To be noted: dosage 320 g/ha. In outline:
(§2)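 Greenhouse pre-emergence test: formulated compound (WP or EC) applied in water to the soil covering sown seeds, 600–800 l/ha, 0.2% wetting agent. Scored visually in percent at 3 weeks versus untreated plants.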
Regarding `CCCn1nnnc1NC(=O)c1ccc(C(F)(F)F)c(CSCC(F)(F)F)c1Cl` [Example 3-311], the “herbicidal action VIOTR” value was determined as 100%.

As for `CCn1nnnc1NC(=O)c1ccc(Cl)c(CSC)c1Cl` [Example 2-559], the “herbicidal action VIOTR” value turned out to be 100%.

Turning to `CCS(=O)(=O)Cc1c(C(F)(F)F)ccc(C(=O)Nc2nnnn2C)c1C` [Example 1-88], the “herbicidal action VIOTR” value amounted to 100%.

As for `CCCn1nnnc1NC(=O)c1ccc(S(C)(=O)=O)c(CS(C)(=O)=O)c1C` [Example 3-39], the “herbicidal action VIOTR” value is on record as 100%.

Regarding `CCCn1nnnc1NC(=O)c1ccc(C(F)(F)F)c(CSC)c1SC` [Example 3-161], the “herbicidal action VIOTR” value is 100%.

The test is the same for the next values; noted with them: dosage 320 g/ha, scored visually after 3 weeks vs untreated controls (100% = plants have died).
With `CCn1nnnc1NC(=O)c1ccc(C(F)F)c(C[S+](C)[O-])c1SC` (stereo not drawn) [Example 2-171], the “herbicidal activity VIOTR” value is 100%.

On to `CCCn1nnnc1NC(=O)c1ccc(C(F)F)c(CS(C)(=O)=O)c1SC` [Example 3-172], for which the “herbicidal activity VIOTR” value was determined as 100%.

As for `CCn1nnnc1NC(=O)c1ccc(C(F)(F)F)c(C[S+](C)[O-])c1SC` (stereo not drawn) [Example 2-162], the “herbicidal activity VIOTR” value came out at 100%.

On to `Cn1nnnc1NC(=O)c1ccc(C(F)(F)F)c(CS(C)(=O)=O)c1C(F)(F)C(F)(F)F` [Example 1-552], for which the “herbicidal activity VIOTR” value amounted to 100%.

`Cn1nnnc1NC(=O)c1ccc(C(F)(F)F)c(CS(=O)(=O)CC2CC2)c1Cl` [Example 1-316]: the “herbicidal activity VIOTR” value is reported as 100%.

Regarding `CCn1nnnc1NC(=O)c1ccc(C(F)F)c(CS(=O)(=O)CC)c1Cl` [Example 2-325], the “herbicidal activity VIOTR” value is listed as 100%.

In another test the test system is Echinochloa crus-galli. The experiment in a line: Pre-emergence herbicidal action, ECHCG. Format: in vivo. To be noted: dosage 320 g/ha. In outline:
as §2
As for `CCCn1nnnc1NC(=O)c1ccc(C(F)(F)F)c(CSCC(F)(F)F)c1Cl` [Example 3-311], the “herbicidal action ECHCG” value is 80%.

As to `CCn1nnnc1NC(=O)c1ccc(Cl)c(CSC)c1Cl` [Example 2-559], the “herbicidal action ECHCG” value is recorded as 100%.

As to `CCS(=O)(=O)Cc1c(C(F)(F)F)ccc(C(=O)Nc2nnnn2C)c1C` [Example 1-88], the “herbicidal action ECHCG” value amounted to 100%.

On to `CCCn1nnnc1NC(=O)c1ccc(S(C)(=O)=O)c(CS(C)(=O)=O)c1C` [Example 3-39], for which the “herbicidal action ECHCG” value stood at 90%.

For `CCCn1nnnc1NC(=O)c1ccc(C(F)(F)F)c(CSC)c1SC` [Example 3-161], the “herbicidal action ECHCG” value amounted to 100%.

Still in this test, the particulars now being: dosage 320 g/ha, scored visually after 3 weeks vs untreated controls (100% = plants have died).
Take `CCn1nnnc1NC(=O)c1ccc(C(F)F)c(C[S+](C)[O-])c1SC` (stereo not drawn) [Example 2-171]: the “herbicidal activity ECHCG” value is listed as 100%.

As for `CCCn1nnnc1NC(=O)c1ccc(C(F)F)c(CS(C)(=O)=O)c1SC` [Example 3-172], the “herbicidal activity ECHCG” value is listed as 100%.

`CCn1nnnc1NC(=O)c1ccc(C(F)(F)F)c(C[S+](C)[O-])c1SC` (stereo not drawn) [Example 2-162]: the “herbicidal activity ECHCG” value was 100%.

On to `Cn1nnnc1NC(=O)c1ccc(C(F)(F)F)c(CS(C)(=O)=O)c1C(F)(F)C(F)(F)F` [Example 1-552], for which the “herbicidal activity ECHCG” value is reported as 100%.

On to `Cn1nnnc1NC(=O)c1ccc(C(F)(F)F)c(CS(=O)(=O)CC2CC2)c1Cl` [Example 1-316], for which the “herbicidal activity ECHCG” value turned out to be 100%.

With `CCn1nnnc1NC(=O)c1ccc(C(F)F)c(CS(=O)(=O)CC)c1Cl` [Example 2-325], the “herbicidal activity ECHCG” value turned out to be 100%.

A further test deals with Setaria viridis. The test is described as follows: Pre-emergence herbicidal action, SETVI. Format: in vivo. The following applies: dosage 320 g/ha. Put shortly: as §2
`CCCn1nnnc1NC(=O)c1ccc(C(F)(F)F)c(CSCC(F)(F)F)c1Cl` [Example 3-311]: the “herbicidal action SETVI” value is 100%.

For the molecule `CCn1nnnc1NC(=O)c1ccc(Cl)c(CSC)c1Cl` [Example 2-559], the “herbicidal action SETVI” value came out at 90%.

Regarding `CCS(=O)(=O)Cc1c(C(F)(F)F)ccc(C(=O)Nc2nnnn2C)c1C` [Example 1-88], the “herbicidal action SETVI” value was 100%.

As to `CCCn1nnnc1NC(=O)c1ccc(S(C)(=O)=O)c(CS(C)(=O)=O)c1C` [Example 3-39], the “herbicidal action SETVI” value is on record as 80%.

Consider `CCCn1nnnc1NC(=O)c1ccc(C(F)(F)F)c(CSC)c1SC` [Example 3-161], for which the “herbicidal action SETVI” value is 90%.

The same test, now with this note: dosage 320 g/ha, scored visually after 3 weeks vs untreated controls (100% = plants have died).
`CCn1nnnc1NC(=O)c1ccc(C(F)F)c(C[S+](C)[O-])c1SC` (stereo not drawn) [Example 2-171]: the “herbicidal activity SETVI” value is given as 100%.

For `CCCn1nnnc1NC(=O)c1ccc(C(F)F)c(CS(C)(=O)=O)c1SC` [Example 3-172], the “herbicidal activity SETVI” value is 100%.

Consider `CCn1nnnc1NC(=O)c1ccc(C(F)(F)F)c(C[S+](C)[O-])c1SC` (stereo not drawn) [Example 2-162], for which the “herbicidal activity SETVI” value is recorded as 100%.

`Cn1nnnc1NC(=O)c1ccc(C(F)(F)F)c(CS(C)(=O)=O)c1C(F)(F)C(F)(F)F` [Example 1-552]: the “herbicidal activity SETVI” value came to 100%.

Turning to `Cn1nnnc1NC(=O)c1ccc(C(F)(F)F)c(CS(=O)(=O)CC2CC2)c1Cl` [Example 1-316], the “herbicidal activity SETVI” value was found to be 100%.

On to `CCn1nnnc1NC(=O)c1ccc(C(F)F)c(CS(=O)(=O)CC)c1Cl` [Example 2-325], for which the “herbicidal activity SETVI” value is 100%.

These data come from US12492173B2, “Herbicidal substituted N-tetrazolyl aryl carboxamides” (Bayer Aktiengesellschaft, priority 2019, dated 2025).
